Experimental data as given in patent publication US20250255893A1, “ISOPROPYL-D-GLUCOPYRANOSIDE DERIVATIVE, AND PREPARATION METHOD THEREFOR AND USE THEREOF” (NATIONAL TSING HUA UNIVERSITY, priority 2021, published 2025).

Tests used:
[1] = system: hippocampal neurons; assay: In vitro hippocampal neuron repair (scratch injury, gap closure rate); assay type: cell-based, rat; details: 72 hours
Experimental: (§1) The experimental procedure is depicted in FIG. 2. Removed the brain of E18 rat embryos and dissected into cortex and hippocampus. Subsequently, the cortex and hippocampus were separated into cortical neurons and hippocampal neurons, respectively. Then, seeded hippocampal neurons on 48-well plates. The first day that neurons are cultured in vitro is defined as day in vitro 0 (DIV0). On DIV2, Cytosine beta-D-arabinoside (AraC) was added to neurons to inhibit the proliferation of glial cells. On DIV8, neurons were injured using pipette tips (p10 tips) and 9.674 nM to 967.4 μM Ampelopsisionoside was added. 0.1% DMSO served as the solvent control group, and the results in the figures were standardized against the 0.1% DMSO group. After 72 hours, immunostaining was performed. TUJ1 antibody was used to label neuronal cells to observe the regrowth of neurites. Images were taken using Observer Z1 microscope.
(§2) As depicted in FIG. 3, the degree of neuronal axon regeneration was quantified using the gap closure rate. White dashed lines indicate the borders of injury gap, the central black area represents the region scratched by the tip of a pipette tips. The newly regenerated neurites grow from the white dashed lines toward the center of the gap. To quantify the results, we measured the lengths of gap (Lg) and distance between regenerated neurites (Ln) every 50 m. After unbiasedly drawing ten lines of equal distance, the average distance between neurites is taken: Length of gap between regenerated neurons (Ln). Gap closure rate is calculated using the formula: (Lg−Ln)/Lg. Scale bar=100 m. Images were taken using Observer Z1 microscope.
(§3) Removed the brain of E18 rat embryos and dissected into cortex and hippocampus. Subsequently, the cortex and hippocampus were separated into cortical neurons and hippocampal neurons, respectively. Then, seeded hippocampal neurons on 48-well plates. The first day that neurons are cultured in vitro is defined as day in vitro 0 (DIV0). On DIV2, Cytosine beta-D-arabinoside (AraC) was added to neurons to inhibit the proliferation of glial cells. […]

[2] = system: cortical neurons; assay: In vitro cortical neuron repair (scratch injury, gap closure rate); assay type: cell-based, rat; details: 72 hours
From the text: as §2
as §1, with “Removed” for “The experimental procedure is depicted in FIG. 2. Removed”, “seeded cortical” for “seeded hippocampal”, “to 96.74” for “to 967.4”, “neurites. Scale bar=100 m.” for “neurites.”
as §3, with “seeded cortical” for “seeded hippocampal”

[3] = system: retinal explants; assay: Ex vivo retinal explant neuronal repair; assay type: cell-based, C57BL/6 mice; details: five days, vs ddH2O
Experimental: Retinal explants were obtained from C57BL/6 mice at postnatal day 8. Following the sacrifice of mice, the eyes were enucleated, and the eyeballs were dissected using forceps and microscissors to separate the retina and remove the vitreous. Subsequently, the dissected retinas were quartered and trimmed along the edges of the tissue using microscissors. Each quarter was cultured on an 18 mm round coverslip and placed in a 12-well plate inside a CO2 incubator at 35° C. for five days. The culture medium was replaced daily with fresh medium containing either 13.5 µM or 135 µM Byzantionoside B. On the fifth day of culture, the retinal tissues were fixed with a mixture of 0.1% glutaraldehyde solution and 4% paraformaldehyde at room temperature for one hour. Immunostaining was performed using primary antibodies against the axonal marker beta-III-tubulin (TUJ1) and DAPI to label neurons and cell nuclei, respectively. Images were acquired using a super-resolution upright confocal microscope (LSM-800, Carl Zeiss). […] The ratio of neuronal fiber area to tissue boundary perimeter was then calculated to determine the unit perimeter neuronal fiber length.
Retinal explants were obtained from C57BL/6 mice at postnatal day 8. […] The ratio of neuronal fiber area to tissue boundary perimeter was then calculated to determine the unit perimeter neuronal fiber length.

[4] = system: injured brain sections; assay: Ex vivo 3D brain slice culture, neurite outgrowth after scalpel injury; assay type: cell-based; details: 350 μm rat embryo brain sections, added every day, 96 hours, vs ddH2O
Experimental: (§4) The experimental procedure is depicted in FIG. 10. Took out the brain of rat embryos and embedded in low-melting agarose. The brains were sectioned using Leica microtome VT100. The tissue sections were collected with 350 μm thick and injured using a scalpel. ddH2O or Ampelopsisionside was added to injured brain sections every day. After 96 hours, immunostaining was performed. TUJ1 antibody was used to label neuron cells. GFAP antibody was used to label glial cells. DAPI was used to label nucleus. Scale bar=100 m. Images were taken using Zeiss LSM800 confocal microscope.
as §4, with “Byzantionoside B” for “Ampelopsisionside”
as §4, with “Roseoside” for “Ampelopsisionside”, “μm.” for “m.”

Row | SMILES | neurite regrowth after injury (gap closure rate) ([1]; 0.013 M to 1294 μM, vs ddH2O) | dendritic outgrowth (gap closure rate) ([2]; 1.29 M to 25.88 M, vs ddH2O) | recovery of injured retinal neurons (unit perimeter neuronal fiber length) ([3]; 13 μM or 130 μM) | neurite outgrowth from injury site [4] | neurite regrowth after injury (gap closure rate) ([1]; 0.13 M to 1342 μM, vs ddH2O) | neurite outgrowth (gap closure rate) ([2]; 1.34 M to 26.84 M, vs ddH2O) | recovery of injured retinal neurons (unit perimeter neuronal fiber length) ([3]; 13.5 M or […]) | neurite regrowth after injury (gap closure rate) ([1]; 9.674 nM to 967.4 μM, vs 0.1% DMSO) | dendritic outgrowth (gap closure rate) ([2]; 9.674 nM to 96.74 μM, vs 0.1% DMSO)
1 | CC1=CC(=O)CC(C)(C)[C@@]1(O)/C=C/[C@@H](C)O[C@@H]1O[C@H](CO)[C@@H](O)[C@H](O)[C@H]1O [Roseoside] | promotes neurite regrowth after injury | effectively promotes dendritic outgrowth | significant recovery of injured retinal neurons | promotes neurite outgrowth |  |  |  |  | 
2 | CC1=CC(=O)CC(C)(C)[C@H]1CC[C@@H](C)O[C@@H]1O[C@H](CO)[C@@H](O)[C@H](O)[C@H]1O [Byzantionoside B] |  |  |  | promotes neurite outgrowth | promotes neurite regrowth after injury | effectively promotes neurite outgrowth | significant recovery of injured retinal neurons |  | 
3 | C[C@H](/C=C/[C@@]1(O)[C@H](C)CC(=O)CC1(C)C)O[C@@H]1O[C@H](CO)[C@@H](O)[C@H](O)[C@H]1O [Ampelopsisionoside] |  |  |  | promotes neurite outgrowth |  |  |  | promotes neurite regrowth after injury | effectively promotes dendritic outgrowth
